{"source": "patent US12478614B2", "about": "“Inhibitors of glutathione s-transferases (GSTs) and NAD(P)H:quinone oxidoreductase 1 (NQO1), pharmaceutical compositions, and uses in managing cancer” (Emory University, priority 2020, dated 2025)", "key": {"[1]": {"tested_on": "U87MG/EGFRvIII cells", "assay": "Proliferation of U87MG/EGFRvIII cells", "assay_type": "cell-based", "experimental": "After structure-activity relationship (SAR) analysis, it was identified that that most compounds contained two aromatic rings bridged through an amide group.\n(§1) To explore the anti-proliferative effects of MNPC, U87MG/EGFRVIII cells were treated with different doses of MNPC (0, 0.1, 0.5, 1 and 5 μM) for 5 days. […] Asparagine endopeptidase (AEP) is frequently overexpressed in numerous human cancers and mediates cancer cell invasion and metastasis. […] Since NQO1 and GSTP1 are the major binding proteins of MNPC, in vitro reductase enzyme activity assays with purified recombinant proteins was conducted. […] NQO1 also acts as an antioxidant enzyme by regenerating antioxidant forms of ubiquinone and vitamin E quinone. To explore whether the oxidative stress levels are correlated with the expression levels of antioxidant enzymes: NQO1 and GSTP1, the cellular ROS concentrations and cytotoxicity after MNPC treatment was examined. […] Thus, MNPC inhibits GSTP1 and NQ01 enzyme activities without altering their protein levels. […] The results were also confirmed by TUNEL assay."}, "[2]": {"target": "T1, NQO1 (Homo sapiens, UniProt P15559)", "assay": "BIACORE binding assay, NQO1", "conditions": "MNPC immobilized to the chip"}, "[3]": {"target": "T2, GSTP1 (Homo sapiens, UniProt P09211)", "assay": "BIACORE binding assay, GSTP1", "conditions": "MNPC immobilized to the chip"}, "[4]": {"target": "T1, NQO1", "assay": "In vitro reductase enzyme activity assay, NQO1", "assay_type": "biochemical", "conditions": "purified recombinant protein", "experimental": "as §1"}, "[5]": {"target": "T2, GSTP1", "assay": "In vitro enzyme activity assay, GSTP1", "assay_type": "biochemical", "conditions": "purified recombinant protein", "experimental": "as §1"}, "[6]": {"tested_on": "U87MG/EGFRvIII cells", "assay": "Cell invasion assay", "assay_type": "cell-based", "experimental": "as §1"}, "[7]": {"target": "T3, Asparagine endopeptidase (AEP) (Homo sapiens, UniProt Q99538)", "T3 construct": "endogenous in cells; host or cells: U87MG/EGFRvIII (inferred from context)", "T3 sequence (Q99538 18-323)": "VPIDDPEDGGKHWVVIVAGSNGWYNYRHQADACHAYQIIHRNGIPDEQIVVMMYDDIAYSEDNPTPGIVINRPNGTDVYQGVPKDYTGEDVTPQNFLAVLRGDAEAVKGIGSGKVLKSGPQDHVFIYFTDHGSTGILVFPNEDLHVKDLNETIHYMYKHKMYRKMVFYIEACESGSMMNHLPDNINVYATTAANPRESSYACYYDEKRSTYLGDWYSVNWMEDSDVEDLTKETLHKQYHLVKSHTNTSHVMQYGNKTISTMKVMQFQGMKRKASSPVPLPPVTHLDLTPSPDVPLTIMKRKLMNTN", "assay": "AEP enzymatic activity assay", "assay_type": "cell-based", "experimental": "as §1"}, "[8]": {"tested_on": "U87MG/EGFR cells", "assay": "Cellular oxidative stress and cytotoxicity after MNPC treatment", "assay_type": "cell-based", "experimental": "as §1"}, "[9]": {"tested_on": "U87MG/EGFRvIII cells", "assay": "Apoptosis (caspase-3 activation, TUNEL assay)", "assay_type": "cell-based", "experimental": "as §1"}, "[10]": {"tested_on": "NQO1", "assay": "NQO1 protein level upon treatment", "assay_type": "cell-based", "conditions": "upon MNPC treatment", "experimental": "as §1"}, "[11]": {"tested_on": "GSTP1", "assay": "GSTP1 protein level upon treatment", "assay_type": "cell-based", "conditions": "upon MNPC treatment", "experimental": "as §1"}, "[12]": {"tested_on": "U87MG/EGFRvIII cells", "assay": "Murine intracranial xenograft model with U87MG/EGFRvIII cells", "assay_type": "in vivo, Nu/Nu nude mice", "experimental": "Nu/Nu nude mice were treated with increasing doses (3, 10 mg/kg) of MNPC by i.p. every two days for total 10 times (n=6 mice per group). The survival curves of brain tumor-bearing mice were calculated.\nTo assess the therapeutic potential of MNPC, a murine intracranial xenograft model was used, inoculated with U87MG/EGFRvIII cells. After 7 days of brain injection of the GBM cells and the tumor formation, the animals were treated with vehicle or different doses of MNPC (3 or 10 mg/kg) every 2 days for a total of 10 times. […] The ROS levels and signaling cascades were examined in the tissue samples derived from tumors extracted from MNPC or vehicle-treated mice."}, "[13]": {"target": "T1, NQO1", "assay": "Co-crystal structure with NQO1", "experimental": "(§2) Experiments indicate that both NQO1 and GSTP1 were overexpressed in GBM, which inhibit the oxidative stress and prevent cancer cell death. Compounds which act as NQO1 and GSTP1 dual inhibitors suppress the proliferation and stimulated apoptosis in U87MG/EGFRVIII cells. […] Thus, these experiments indicate that a small dual inhibitor for both NQO1 and GSTP1 disrupting the redox homeostasis might be an innovative strategy for GBM therapy."}, "[14]": {"target": "T2, GSTP1", "assay": "Co-crystal structure with GSTP1", "experimental": "as §2"}, "[15]": {"conditions": "3 or 10 mg/kg i.p. every 2 days, 10 times, especially 10 mg/kg"}}, "note": "Entries after “also recorded” stand apart in the source; their conditions may differ.", "data": [{"smiles": "Cc1onc(-c2ccccc2)c1C(=O)Nc1ncc([N+](=O)[O-])s1", "note": "[MNPC, 5-methyl-N-(5-nitrothiazol-2-yl)-3-phenylisoxazole-4-carboxamide]", "values": [{"measurement": "cell proliferation", "setting": "[1]; U87MG/EGFRVIII cells, 0, 0.1, 0.5, 1 and 5 μM for 5 days", "value": "dose-dependently inhibited"}, {"measurement": "Kd", "setting": "[2]", "value": 90.8, "unit": "nM"}, {"measurement": "Kd", "setting": "[3]", "value": 89.6, "unit": "nM"}, {"measurement": "IC50", "setting": "[4]", "value": 926, "unit": "nM"}, {"measurement": "IC50", "setting": "[5]", "value": 797, "unit": "nM"}, {"measurement": "cell invasion", "setting": "[6]", "value": "no significant difference"}, {"measurement": "AEP enzymatic activity", "setting": "[7]", "value": "no significant difference"}, {"measurement": "Carbonyl Expression", "setting": "[8]", "value": "escalated"}, {"measurement": "LDH", "setting": "[8]; cytotoxicity", "value": "escalated"}, {"measurement": "ROS levels", "setting": "[8]; dose-dependent", "value": "increased"}, {"measurement": "GSH/GSSH ratios", "setting": "[8]; in a dose-dependent manner", "value": "down-regulated"}, {"measurement": "cell apoptosis", "setting": "[9]; TUNEL assay", "value": "dose-dependently increases"}, {"measurement": "caspase-3 activation", "setting": "[9]; U87MG/EGFRvIII cells", "value": "induced"}, {"measurement": "protein level of NQO1", "setting": "[10]", "value": "not changed"}, {"measurement": "protein level of GSTP1", "setting": "[11]", "value": "not changed"}, {"measurement": "tumor growth (intracranial tumor volume)", "setting": "[12]; 3 or 10 mg/kg i.p. every 2 days, 10 times", "value": "dose-dependent anti-tumor effect; also recorded: suppresses tumor growth"}, {"measurement": "body weight", "setting": "[12]; [15]", "value": "significantly increased"}, {"measurement": "survival rates", "setting": "[12]; [15]", "value": "prolonged the survival rate; also recorded: significantly increased; also recorded: elongates mouse life span"}, {"measurement": "ROS levels in tumor tissue samples", "setting": "[12]; tumors from treated mice", "value": "strongly increased"}, {"measurement": "apoptotic caspase 3 in tumor tissue samples", "setting": "[12]; tumors from treated mice", "value": "activated"}, {"measurement": "effect on NQO1 active site in co-crystal structure", "setting": "[13]", "value": "blocked the active enzymatic sites"}, {"measurement": "effect on GSTP1 active site in co-crystal structure", "setting": "[14]", "value": "blocked the active enzymatic sites"}]}, {"smiles": "CC(=O)Oc1ccccc1C(=O)Nc1ncc([N+](=O)[O-])s1", "note": "[NTZ, 2-((5-nitrothiazol-2-yl)carbamoyl)phenyl acetate]", "values": [{"measurement": "anti-proliferative activities toward U87MG/EGFRvIII cells compared with MNPC", "setting": "[1]", "value": "comparable anti-proliferative activities"}]}, {"smiles": "O=C(Nc1ncc([N+](=O)[O-])s1)c1ccccc1O", "note": "[TIZ, 2-hydroxy-N-(5-nitrothiazol-2-yl)benzamide]", "values": [{"measurement": "anti-proliferative activities toward U87MG/EGFRvIII cells compared with MNPC", "setting": "[1]", "value": "comparable anti-proliferative activities"}]}]}
